{
  "source": "patent US11022604B2",
  "about": "“Dock derived compound against laminin receptor (37 LR) and uses thereof” (Purdue Research Foundation, priority 2017, dated 2021)",
  "tested_on": "PC-3 cells",
  "assay": "Label-free quantitative proteomics and Ingenuity Pathway Analysis",
  "format": "cell-based, human",
  "settings": "PC-3, 10 μM, 72 hours",
  "protocol": "FIG. 7. Volcano Plot of Differentially regulated proteins in response to C3 treatment. PC-3 cells were treated with DMSO or 10 μM C3 for 72 hours and proteins were quantified using label free quantitative mass spectrometry. Proteins were graphed by fold change (Difference) and significance (−Log p) using a false discovery rate of 0.05 and an S0 of 0.1.\nFIG. 8 Ingenuity pathway analysis of proteomic data from C3 treatment of PC-3 cells.\nWound Healing Assay. PC-3 cells were seeded in 6 well plates at 3×10^5 cells per well in complete media until the cells reached confluency. Three horizontal and three vertical scratches were made in the confluent monolayers using a standard 200 μL pipette tip and cellular debris were removed by washing with 1×DPBS three times. 1×RPMI-1640 supplemented with C3 or DMSO was added and cells were incubated for 48 hours as described previously. […] Images were uploaded and analyzed for scratch geometry using the tscratch program (96). First, global thresholding was performed, then individual images were manually inspected for single image threshold adjustment and scratch geometries were quantified. […] The samples were analyzed using the Dionex UltiMate 3000 RSLC Nano System coupled to the Q Exactive™ HF Hybrid Quadrupole-Orbitrap MS (Thermo Scientific). […]",
  "data": [
    {"molecule": "O=C(c1cc(F)cc2c1OCOC2)N1CCN(C2c3ccccc3-c3ccccc32)CC1", "note": "[Compound C3, [4-(9h-fluoren-9-yl)piperazino](6-fluoro-4h-1,3-benzodioxin-8-yl)methanone]", "values": [
      {"measurement": "ICT1 protein level", "value": 1.9, "unit": "FC"}
    ]}
  ]
}
